# Assay results reported in patent publication US11912679B2, “Aryl alkynamide derivatives” (Astellas Pharma, Inc., priority 2022, dated 2024).
# Tested on: IRF pathway of THP-1
# Assay: Test on the activity of IRF pathway of THP-1 (THP1-Dual reporter cells stimulated with 2'3'-cGAMP)
# Assay type: cell-based
# Conditions: Homo sapiens, PMA-treated, 2'3'-cGAMP 5 ug/mL, QUANTI-Luc readout, read-out: IC50 of inhibition of the activity of IRF pathway
# Experimental: 0.3 uM of PMA (phorbol myristate acetate, SIGMA, P1585) was added to THP1-Dual™ cells (NF-κB-SEAP IRF-Luc Reporter Monocytes, Invivogen, thpd-nfis), and the cells were cultured at 37° C. for 1 day in RPMI1640 with 10% Fetal Bovine Serum (FBS). A compound with a known concentration was added, and the cells were incubated at room temperature for 1 hour. Mammalian (non-canonical) CDN, cyclic [G(2′,5′)pA(3′,5′)p] (2′3′-cGAMP, Invivogen, tlrl-nacga23) was added to a final concentration of 5 ug/mL, and the cells were cultured at 37° C. On the following day, QUANTI-Luc™ (Secreted luciferase detection medium, Invivogen, rep-qlc) was added to the culture solution and the activity of IRF pathway was measured using a microplate reader. The inhibition ratio at each concentration was determined, where the activity of IRF pathway with no addition of the test compound or 2′3′-cGAMP was defined as 100% inhibition and the activity of IRF pathway with no addition of the test compound and with addition of 2′3′-cGAMP was defined as 0% inhibition. The IC50 value was calculated by sigmoid […] model non-linear regression analysis.
row,Structure (SMILES),IC50 [µM]
1,O=C(C#Cc1ccc(-c2ccccc2)c(C(F)(F)F)c1)N(CCO)C1CC1 [Example 52],0.442
2,"O=C(C#Cc1ccc(-c2ccccc2)c(C(F)(F)F)c1)Nc1cccc(C(=O)O)c1 [Example 90, 3-({3-[2-(trifluoromethyl)[1,1′-biphenyl]-4-yl]prop-2-ynoyl}amino)benzoic acid]",0.471
3,O=C(C#Cc1ccc(-c2cccc(OC(F)F)c2)c(C(F)(F)F)c1)N1C[C@@H](O)[C@@H](O)C1 [Example 64],0.448
4,CN1CCN(C(=O)C#Cc2ccc(-n3cccn3)cc2)CC1 [Example 8],7.75
5,O=C(C#Cc1ccc(C2CCOCC2)c(C(F)(F)F)c1)N1C[C@@H](O)[C@@H](O)C1 [Example 104],1.79
6,COC1CCN(Cc2cc(C#CC(=O)NC[C@H](O)CO)ccc2-c2ccccc2)CC1 [Example 98],2.57
7,O=C(C#Cc1ccc(-c2ccccc2OC(F)(F)F)c(C(F)(F)F)c1)NCCO [Example 69],0.19
8,CN(CCO)C(=O)C#Cc1ccc(-c2ccccc2OC(F)(F)F)c(C(F)(F)F)c1 [Example 76],0.076
9,O=C(C#Cc1ccc(-c2ccccc2OC(F)(F)F)c(C(F)(F)F)c1)N1C[C@H](O)[C@@H](O)C1 [Example 70],0.035
10,O=C(C#Cc1ccc(-c2ccccc2)c(C(F)(F)F)c1)NCCNS(=O)(=O)CCO [Example 114],0.339
11,NC(=O)[C@@H]1CCCN1C(=O)C#Cc1ccc(-c2ccccc2)c(C(F)(F)F)c1 [Example 24],0.121
12,CC(C)N1CCN(C(=O)C#Cc2ccc(-c3ccccc3)c(C(F)(F)F)c2)CC1 [Example 15],0.237
13,O=C(C#Cc1ccc(-c2ccc(OC(F)F)cc2)c(C(F)(F)F)c1)N1C[C@@H](O)[C@H](O)C1 [Example 61],0.611
14,O=C(C#Cc1ccc(-c2ccccc2)c(C(F)(F)F)c1)N1CCC(O)(CO)CC1 [Example 26],0.299
15,N#Cc1cc(C#CC(=O)N2C[C@@H](O)[C@@H](O)C2)ccc1-c1ccccc1 [Example 120],0.324
16,"O=C(C#Cc1ccc(-c2ccccc2C(F)(F)F)cc1)N1C[C@@H](O)[C@@H](O)C1 [Example 131, 1-[(3R,4S)-3,4-dihydroxypyrrolidin-1-yl]-3-[2′-(trifluoromethyl)[1,1′-biphenyl]-4-yl]prop-2-yn-1-one]",0.578
17,O=C(C#Cc1ccc(-c2ccccc2)c(C(F)(F)F)c1)N(CCO)C1CCOCC1 [Example 51],0.184
18,O=C(C#Cc1ccc(-c2cccc(OC(F)F)c2)c(C(F)(F)F)c1)N1C[C@@H](O)[C@H](O)C1 [Example 65],0.34
19,NC(=O)[C@@H]1C[C@H](O)CN1C(=O)C#Cc1ccc(-c2ccccc2)c(C(F)(F)F)c1 [Example 28],0.095
20,CS(=O)(=O)NCc1cc(C#CC(=O)N2C[C@@H](O)[C@@H](O)C2)ccc1-c1ccccc1C(F)(F)F [Example 124],2
21,"O=C(C#Cc1ccc(-c2ccccn2)cc1)N(CCO)c1ccccc1 [Example 87, N-(2-hydroxyethyl)-N-phenyl-3-[4-(pyridin-2-yl)phenyl]prop-2-ynamide]",1.61
22,O=C(C#Cc1ccc(-c2ccccc2OC(F)(F)F)c(C(F)(F)F)c1)NC[C@H](O)CO [Example 75],0.073

row,Structure (SMILES),IC50 [µM]
1,COc1ncc(-c2ccc(C#CC(=O)N3C[C@@H](O)[C@@H](O)C3)cc2C(F)(F)F)cn1 [Example 122],3.1
2,O=C(C#Cc1ccc(-c2ccccc2)c(C(F)(F)F)c1)N[C@@H]1CCNC1=O [Example 11],0.146
3,CN(C)c1cc(C#CC(=O)N2C[C@@H](O)[C@@H](O)C2)ccc1-c1ccccc1C(F)(F)F [Example 110],1.21
4,Cn1cc(N(CCO)C(=O)C#Cc2ccc(-c3ccccc3)c(C(F)(F)F)c2)cn1 [Example 55],0.083
5,Cc1cc(C#CC(=O)N2C[C@@H](O)[C@@H](O)C2)ccc1-c1ccccc1C(F)(F)F [Example 112],0.887
6,"N[C@H]1CCN(C(=O)C#Cc2ccc(-c3ccccc3)c(C(F)(F)F)c2)C1 [Example 100, 1-[(3S)-3-aminopyrrolidin-1-yl]-3-[2-(trifluoromethyl)[1,1′-biphenyl]-4-yl]prop-2-yn-1-one monooxalate]",0.125
7,CN1CCN(C(=O)C#Cc2ccc(-c3ccccc3)cc2)CC1 [Example 19],1.39
8,O=C(C#Cc1ccc(-c2ccccc2C(F)(F)F)c(Cl)c1)N1C[C@@H](O)[C@@H](O)C1 [Example 109],0.112
9,O=C(C#Cc1ccc(-c2ccccc2OC(F)(F)F)c(C(F)(F)F)c1)N[C@@H]1COC[C@@H]1O [Example 72],1.21
10,O=C(C#Cc1ccc(-c2ccc(OC(F)(F)F)cc2)c(C(F)(F)F)c1)NC[C@H](O)CO [Example 41],0.792
11,O=C(C#Cc1ccc(-c2ccccc2)c(C(F)(F)F)c1)N1CC(O)C1 [Example 42],0.158
12,CS(=O)(=O)NCCCNC(=O)C#Cc1ccc(-c2ccccc2)c(C(F)(F)F)c1 [Example 32],0.178
13,CC(C)N(CCO)C(=O)C#Cc1ccc(-c2ccccc2)c(C(F)(F)F)c1 [Example 53],0.55
14,O=C(C#Cc1ccc(C2=CCOCC2)c(C(F)(F)F)c1)N1C[C@@H](O)[C@@H](O)C1 [Example 18],1.41
15,"O=C(C#Cc1cnc(-c2ccccc2)c(C(F)(F)F)c1)N1C[C@@H](O)[C@@H](O)C1 [Example 47, 1-[(3R,4S)-3,4-dihydroxypyrrolidin-1-yl]-3-[6-phenyl-5-(trifluoromethyl)pyridin-3-yl]prop-2-yn-1-one]",0.277
16,O=C(C#Cc1ccc(-c2ccc(OC(F)F)cc2)c(C(F)(F)F)c1)N[C@H]1COC[C@H]1O [Example 80],0.539
17,"CN[C@@H]1CCN(C(=O)C#Cc2ccc(-c3ccccn3)c(C(F)(F)F)c2)C1 [Example 127, 1-[(3R)-3-(methylamino)pyrrolidin-1-yl]-3-[4-(pyridin-2-yl)-3-(trifluoromethyl)phenyl]prop-2-yn-1-one]",0.529
18,CN1CCN(C(=O)C#Cc2cnn(-c3ccccc3)c2C(F)(F)F)CC1 [Example 6],4.82
19,O=C(C#Cc1ccc(-c2cccc(OC(F)F)c2)c(C(F)(F)F)c1)N[C@@H]1COC[C@H]1O [Example 58],0.441
20,O=C(C#Cc1ccc(-c2ccccc2)c(O)c1)N1C[C@@H](O)[C@@H](O)C1 [Example 121],7.78
21,O=C(C#Cc1ccc(-c2ccccc2OC(F)(F)F)c(C(F)(F)F)c1)NC[C@@H](O)CO [Example 74],0.048
22,O=C(C#Cc1ccc(-c2ccccc2)c(C(F)(F)F)c1)N[C@@H]1COC[C@@H]1O [Example 59],0.444

row,Structure (SMILES),IC50 [µM]
1,CC(C)Oc1cc(C#CC(=O)N2C[C@@H](O)[C@@H](O)C2)ccc1-c1ccccc1C(F)(F)F [Example 126],0.372
2,O=C(C#Cc1ccc(-c2ccccc2C(F)(F)F)c2ncccc12)N1C[C@@H](O)[C@@H](O)C1 [Example 117],2.83
3,O=C(C#Cc1ccc(-c2ccccc2)c(C(F)(F)F)c1)NC(CO)CO [Example 39],0.351
4,O=C(C#Cc1ccc(-c2ccc(Cl)cc2)c(C(F)(F)F)c1)N1C[C@@H](O)[C@@H](O)C1 [Example 84],0.435
5,"CN1CCN(C(=O)C#Cc2ccccc2-c2ccccc2)CC1 [Example 1, 3-([1,1′-biphenyl]-2-yl)-1-(4-methylpiperazin-1-yl)prop-2-yn-1-one]",13.4
6,COc1ccc(N(CCO)C(=O)C#Cc2ccc(-c3ccccc3)c(C(F)(F)F)c2)cn1 [Example 54],0.066
7,O=C(C#Cc1ccc(-c2cccc(OC(F)F)c2)c(C(F)(F)F)c1)N1C[C@H](O)[C@@H](O)C1 [Example 56],0.256
8,"NC(=O)[C@@H]1CCN(C(=O)C#Cc2ccc(-c3ccccc3)c(C(F)(F)F)c2)C1 [Example 20, (3R)-1-{3-[2-(trifluoromethyl)[1,1′-biphenyl]-4-yl]prop-2-ynoyl}pyrrolidine-3-carboxamide]",0.244
9,O=C(C#Cc1ccc(-c2ccccc2)c(OC(F)F)c1)NC[C@H](O)CO [Example 113],0.698
10,O=C(C#Cc1ccc(-c2ccccc2)c(C(F)(F)F)c1)N1CCOCC1 [Example 21],0.295
11,NS(=O)(=O)CCNC(=O)C#Cc1ccc(-c2ccccc2)c(C(F)(F)F)c1 [Example 30],0.159
12,O=C(C#Cc1ccc(-c2ccccc2)c(C(F)(F)F)c1)N[C@H]1CCNC1=O [Example 12],0.385
13,O=C(C#Cc1cnc(-c2ccccc2C(F)(F)F)cn1)N1C[C@@H](O)[C@@H](O)C1 [Example 116],0.428
14,O=C(C#Cc1cnc(-c2ccc(C(F)(F)F)cc2)c(C(F)(F)F)c1)N1C[C@@H](O)[C@@H](O)C1 [Example 85],0.224
15,O=C(C#Cc1ccc(-c2ccccc2)c(C(F)(F)F)c1)N1CC(O)(CO)C1 [Example 9],0.116
16,O=C(C#Cc1ccc(-c2ccccc2)c(CN2CCOCC2)c1)NC[C@H](O)CO [Example 97],4.61
17,O=C(C#Cc1ccc(-c2ccccc2OC(F)(F)F)c(C(F)(F)F)c1)N1CC(O)C1 [Example 77],0.091
18,O=C(C#Cc1ccc(-c2ccccc2)c(C(F)(F)F)c1)N(CCO)c1ccccc1 [Example 48],0.091
19,O=C(C#Cc1ccc(-c2ccccc2OC(F)(F)F)c(C(F)(F)F)c1)N1C[C@@H](O)[C@@H](O)C1 [Example 71],0.043
20,O=C(C#Cc1ccc(-c2ccccc2)c(C(F)(F)F)c1)N1CC[C@@H](O)C1 [Example 108],0.263
